From patent US7199154B2, “Nitric oxide releasing prodrugs of diaryl-2-(5h)-furanones as cyclooxygenase-2 inhibitors” (Merck Frosst Company, priority 2002, dated 2007)

Experiments:
Paw Edema = assay: Rat paw edema assay (carrageenan); type: in vivo; conditions: male Sprague-Dawley rats, 3 hr after carrageenan
Experimental: Male Sprague-Dawley rats (150–200 g) are fasted overnight and are given p.o., either vehicle (1% methocell) or a test compound in the morning. One hr later, a line drawn using a permanent marker at the level above the ankle in one hind paw to define the area of the paw to be monitored. The paw volume (VOh) is measured using a plethysmometer (Ugo-Basile, Italy) based on the principle of water displacement. The animals are then injected subplantarly with 50 ul of a 1% carrageenan solution in saline (sigma Chem) into the paw using an insulin syringe with a 25-gauge needle (i.e. 500 ug carrageenan per paw). Three hr later, the paw volume (V3h) is measured and the increases in paw volume (V3h−VOh) are calculated. Paw edema data are the compared with the vehicle-control group and percent inhibitions calculated taking the values in the control group as 100%. All treatment groups are coded to eliminate observer bias.

microsomal human COX-2 = target: T1, microsomal human COX-2 (Homo sapiens, UniProt P35354); assay: Microsomal cyclooxygenase assay, COX-2; type: biochemical; conditions: microsomal fraction, PGE2 by EIA; read-out: IC50 against microsomal human COX-2
T1 construct: from which microsomes are prepared for microsomal assays, are human osteosarcoma 143 cells; endogenous in cells; host or cells: human osteosarcoma 143 cells (microsomal fraction)
T1 sequence (P35354 18-604): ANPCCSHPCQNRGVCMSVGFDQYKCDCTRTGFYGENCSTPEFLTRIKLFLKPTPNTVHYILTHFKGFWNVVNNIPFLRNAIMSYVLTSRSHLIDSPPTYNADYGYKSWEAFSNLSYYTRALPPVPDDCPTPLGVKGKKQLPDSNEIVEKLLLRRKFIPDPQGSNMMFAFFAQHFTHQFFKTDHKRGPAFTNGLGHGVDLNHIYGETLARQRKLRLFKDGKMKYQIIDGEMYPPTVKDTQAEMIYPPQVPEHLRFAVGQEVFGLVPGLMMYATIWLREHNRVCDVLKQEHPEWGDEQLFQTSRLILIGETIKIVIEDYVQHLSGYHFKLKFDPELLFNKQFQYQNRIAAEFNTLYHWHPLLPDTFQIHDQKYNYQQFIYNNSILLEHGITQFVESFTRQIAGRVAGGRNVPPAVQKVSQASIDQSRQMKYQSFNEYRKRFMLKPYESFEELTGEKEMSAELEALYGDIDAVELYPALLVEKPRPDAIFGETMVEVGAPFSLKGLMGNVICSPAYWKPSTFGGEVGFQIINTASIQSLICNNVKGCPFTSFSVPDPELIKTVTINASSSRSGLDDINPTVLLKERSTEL
Experimental: (§1) Compounds are tested as inhibitors of cyclooxygenase activity in whole cell and microsomal cyclooxygenase assays. Both of these assays measure prostaglandin E2 (PGE2) synthesis in response to arachidonic acid, using a radioimmunoassay. Cells used for whole cell assays, and from which microsomes are prepared for microsomal assays, are human osteosarcoma 143 cells (which specifically express cyclooxygenase-2) and human U-937 cells (which specifically express cyclooxygenase-1). In these assays, 100% activity is defined as the difference between prostaglandin E2 synthesis in the absence and presence of arachidonate addition. IC50 values represent the concentration of putative inhibitor required to return PGE2 synthesis to 50% of that obtained as compared to the uninhibited control.
(§2) Cox microsomal fractions are prepared as previously described (Percival et al., Arch. Biochem. Biophys. (1994) 315:111–118). The enzyme reactions are performed in 50 mM KPi pH 8.0, 1 μM heme, 1 mM phenol supplemented with 10 μg/ml of each Cox-1 or Cox-2 microsomal fractions. 1 μl DMSO or test compound (100 fold stock concentrated in DMSO) are added to 100 μl buffer. The enzyme reaction is initiated 15 minutes later by the addition of 10 μl of 100 μM arachidonic acid. […] PGE2 levels are then determined by EIA (Assay Designs) using the manufacturer's instruction.

microsomal human COX-1 = target: T2, microsomal human COX-1 (Homo sapiens, UniProt P23219); assay: Microsomal cyclooxygenase assay, COX-1; type: biochemical; conditions: microsomal fraction, PGE2 by EIA; read-out: IC50 against microsomal human COX-1
T2 construct: from which microsomes are prepared for microsomal assays, are human osteosarcoma 143 cells; endogenous in cells; host or cells: human U-937 cells (microsomal fraction)
T2 sequence (P23219 24-599): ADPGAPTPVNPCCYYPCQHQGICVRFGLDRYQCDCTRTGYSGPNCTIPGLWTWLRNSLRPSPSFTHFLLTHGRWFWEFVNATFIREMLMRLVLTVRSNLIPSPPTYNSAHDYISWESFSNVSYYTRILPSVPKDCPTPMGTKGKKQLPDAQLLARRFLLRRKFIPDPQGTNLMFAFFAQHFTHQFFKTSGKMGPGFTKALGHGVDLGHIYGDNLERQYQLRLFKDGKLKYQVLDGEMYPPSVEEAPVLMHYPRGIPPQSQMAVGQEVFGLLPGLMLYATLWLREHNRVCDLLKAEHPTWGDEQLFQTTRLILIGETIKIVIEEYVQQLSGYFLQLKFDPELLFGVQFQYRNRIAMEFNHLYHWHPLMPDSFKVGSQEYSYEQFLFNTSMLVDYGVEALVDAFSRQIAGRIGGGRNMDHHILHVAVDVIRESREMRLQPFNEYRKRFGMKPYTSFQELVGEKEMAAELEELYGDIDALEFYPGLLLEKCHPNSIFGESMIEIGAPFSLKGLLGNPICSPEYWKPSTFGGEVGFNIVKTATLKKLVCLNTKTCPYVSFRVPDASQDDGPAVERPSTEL
Experimental: as §1, §2

Structure (SMILES): COC(=O)/C(=C(\COC(=O)OCCCCO[N+](=O)[O-])c1ccc(S(C)(=O)=O)cc1)c1ccccc1 [Example 3, methyl (2Z)-3-[4-(methylsulfonyl)phenyl]-4-({[4-(nitrooxy)butoxy]carbonyl}oxy)-2-phenylbut-2-enoate]
- Paw Edema (% inhibition) (Paw Edema; dose 1 mg/kg p.o.): 42%
- Paw Edema (% inhibition) (Paw Edema; dose 3 mg/kg p.o.): 51%
- Paw Edema (% inhibition) (Paw Edema; dose 10 mg/kg p.o.): 68%
- Paw Edema (% inhibition) (Paw Edema; dose 30 mg/kg p.o.): 79%

Structure (SMILES): CCOC(=O)/C(=C(\COC(=O)OCCCCCCO[N+](=O)[O-])c1ccc(S(C)(=O)=O)cc1)c1ccccc1 [Example 9, Ethyl (2Z)-3-[4-(methylsulfonyl)phenyl]-4-[({[6-(nitrooxy)hexyl]oxy}carbonyl)oxy]-2-phenylbut-2-enoate]
- IC50 (microsomal human COX-2): > 100 µM
- IC50 (microsomal human COX-1): > 100 µM
